The values that follow come from article PMC8997437, “Apelin Resistance Contributes to Muscle Loss during Cancer Cachexia in Mice” (Cancers, 2022).

Experiment [1] relates to C2C12 myotubes. The experiment can be described thus: Total protein content of myotubes. Type of experiment: cell-based, mouse. As to conditions: 10 μM dexamethasone, n = 6.
Method: Total proteins were extracted from myotubes and muscles and quantitated as in [31]. Proteins were separated by electrophoresis on 4–20% sodium dodecyl sulfate-polyacrylamide gel electrophoresis (SDS-PAGE) (Bio-Rad, Hercules, CA, USA) and transferred to a polyvinylidene difluoride membrane (GE Healthcare, Chicago, IL, USA), which was then saturated for 2 h at RT with 5% bovine serum albumin (BSA) or milk in TBS-T buffer (20 mM Tris, 150 mM NaCl and 0.1% Tween-20) (Sigma). […] Band intensities were analyzed using ImageJ software.
The subject of experiment [2] is MuRF1, atrogin-1 and apelin mRNA in myotubes. The experiment can be described thus: Q-PCR of atrophy-related genes in myotubes. Type of experiment: cell-based, mouse. Particulars: 10 μM Dexa, 24 h, TBP housekeeping, n = 6.
Method: Total RNA was isolated from cells or muscles with QIAzol Lysis Reagent (Qiagen, Hilden, Germany) and miRNeasy Kit (Qiagen), as in [31]. RNA concentration and purity were measured in a spectrophotometer (NanoDrop 1000, ThermoFisher Scientific, Waltham, MA, USA).
mRNA/μg in muscle was analyzed using TaqMan reverse transcription reagents (Life Technologies) or SYBR Green (Qiagen). β-Glucuronidase (GUSB), or Tata binding protein (TBP), or Importin 8 (IPO8), or 18S ribosomal RNA (18S) were used as housekeeping genes (HK). To normalize for three HK, we used the ratio between the arithmetic average and the geometric average of the ng of cDNA of each gene, as described in [32].
TBP was used as housekeeping gene.
Experiment [3] has as its system MuRF1 promoter. The experiment can be described thus: MuRF1 promoter-Firefly luciferase reporter assay in myoblasts. Type of experiment: cell-based, mouse. Particulars: 10 μM dexamethasone, 24 h, normalised to RLuc, n = 12.
Method: We used C2C12 myoblasts grown in a 24-well plate and transfected with pLKO or preproapelin-expressing plasmids with murine MuRF1 promoter-FLuc plasmid, and pRL-TK plasmid (Promega) using Lipofectamine 2000 (Life Technologies Europe BV, Carlsbad, CA, USA). The next day, they were treated with vehicle or 10 μM dexamethasone for 24 h. Luciferase activities were measured using the Dual-Luciferase Reporter Assay System (Promega) and a luminometer (Glomax 20/20 single tube luminometer, Promega).
Myoblasts were transfected with a plasmid in which Firefly luciferase (FLuc) is under the control of a MuRF1 promoter, with another for Renilla luciferase (RLuc), under the control of thymidine kinase promoter to normalize the data (ratio 50:1) and with the empty vector pLKO, as control, or a preproapelin-expressing plasmid (Apln). After 24 h, myoblasts were treated with vehicle or with 10 μM Dexa for 24 h. […] Ordinary one-way ANOVA, ** p ≤ 0.01, **** p ≤ 0.0001, n = 12.
For experiment [4], the system named is cAMP-responsive elements (CRE). The experiment can be described thus: CRE-luciferase (cAMP) reporter assay in transfected myoblasts, forskolin induction. It counts as cell-based, mouse. As to conditions: 50 μM forskolin, 5 h. An excerpt:
To test whether D-apelin still binds APJ, ultimately lowering cAMP levels, we transfected myoblasts with a reporter plasmid with the gene for FLuc under the control of cAMP-responsive elements (CRE). […] As expected, forskolin induced the CRE-related bioluminescent signal more than 20-fold (Figure 4C).
Background: A reporter such as luciferase makes a cellular process visible.

The test system of experiment [5] is C2C12 myotubes. The experiment can be described thus: Myotube diameter measurement (dexamethasone-induced atrophy). As to conditions: four day-differentiated myotubes, 24 h; for protection of myotube diameter from dexamethasone-induced atrophy: 10 μM dexamethasone plus 10 nM peptide, n = 261–297. It counts as cell-based, mouse.
Method: C2C12 (ATCC, Manassas, VA, USA), a myoblast cell line from the C3H mouse strain, was grown in DMEM (Dulbecco’s Modified Eagle’s Medium, Gibco, Waltham, MA, USA) with fetal bovine serum (FBS) (Euroclone, Pero, Italy) and 2 mM L-glutamine, (BioWest, Nuaillè, France) and maintained in culture at 37 °C with 5% CO2. Myoblasts differentiate into myotubes when they reached 80% confluence and were cultured for four days in DMEM, 2 mM L-glutamine, horse serum (HS) (Euroclone), at 37 °C and 8% CO2. The differentiation medium was changed every two days.
Pictures of myotubes were acquired with an Olympus Microscope IX71 (10× magnification, 10× ocular lens, Olympus, Shinjuku, Japan) with Cell F (2.6 Build1210, Olympus) imaging software for Life Science microscopy (Olympus Soft Imaging solution GmbH, Munster, Germany). Myotube diameters were measured in blind conditions using ImageJ software (National Institutes of Health, Bethesda, MA, USA). For each photo 10–11 myotubes were measured, calculating the mean of three diameters per myotube, for a total of at least 100 cells per condition.
Four day-differentiated myotubes were exposed for 24 h to vehicle (Ctrl) or 10 μM dexamethasone (Dexa) and representative brightfield images are shown. […] We measured in blind the diameter of four day-differentiated myotubes exposed for 24 h to vehicle or 10 μM Dexamethasone (DEXA) in combination with vehicle or 10 nM apelin peptides of different lengths. […] Kruskal–Wallis test, **** p ≤ 0.0001, n = 261–297.
Experiment [6] deals with APJ. Particulars: cited from earlier work.

“Also recorded” adds a separate entry of the source.

As for `C[C@@H]1C[C@H]2[C@@H]3CCC4=CC(=O)C=C[C@]4(C)[C@@]3(F)[C@@H](O)C[C@]2(C)[C@@]1(O)C(=O)CO` [dexamethasone, Dexamethasone], the “reduction of total protein content” value in experiment [1] is reported as “about 25%”. In experiment [2], the “apelin expression (mRNA)” value is listed as “halved”, the “increase of MuRF1 expression (mRNA)” value is reported as “about 3 fold” and the “increase of atrogin-1 expression (mRNA)” value is reported as 3 fold. Also, in experiment [3], the “increase of FLuc expression under MuRF1 promoter” value is listed as about 15 fold.
Regarding `C=C[C@@]1(C)CC(=O)[C@]2(O)[C@@]3(C)[C@@H](O)CCC(C)(C)[C@@H]3[C@H](O)[C@H](OC(C)=O)[C@@]2(C)O1` [forskolin], the “induction of CRE-related bioluminescent signal” value in experiment [4] is recorded as “more than 20 fold”.
In the case of [Pyr1]-Apelin 13 [L-apelin 13], in experiment [5], the “protection of myotube diameter from dexamethasone-induced atrophy” value is on record as “fully protects myotubes from dexamethasone-induced atrophy; also recorded: fully preserved myotube diameter”. In addition, the “affinity for APJ” value in experiment [6] is on record as “nanomolar affinity”.
As for “apelin 36: apelin isoform of 36 amino acids binding APJ (Tocris) (LVQPRGSRNGPGPWQGGRRKFRRQRPRLSHKGPMPF; Apelin-36; UniProt Q9ULZ1 42-77, looked up)”, the “effect of peptide alone on myotube diameter” value in experiment [5] (10 nM peptide with vehicle) is recorded as “reduced myotube diameters”. For the same molecule, the “protection of myotube diameter from dexamethasone-induced atrophy” value in experiment [5] was “Unlike apelin 36, apelin 13 fully protects”.
